Source: PMC10178848, “Modulating fast skeletal muscle contraction protects skeletal muscle in animal models of Duchenne muscular dystrophy” (The Journal of Clinical Investigation, 2023)

Assays:
MEK2 = biological target: T1, MEK2 (Homo sapiens, UniProt P36507); assay: KINOMEscan scanEDGE; type: binding; settings: 20 uM
T1 construct: purchased Eurofins DiscoverX (KINOMEscan; SAFETYscan E/IC50 ELECT)

ADCK3 = biological target: T2, ADCK3 (Homo sapiens, UniProt Q8NI60); assay: KINOMEscan scanEDGE; type: binding; settings: 20 uM
T2 construct: purchased Eurofins DiscoverX (KINOMEscan; SAFETYscan E/IC50 ELECT)

WT and mdx mice = assay: Voluntary wheel running; type: in vivo, mouse; settings: 50 ppm chow
Protocol: (§1) Prior to in vivo assessments, mice were dosed PO after a 2-hour fast with 10 mL/Kg suspensions. Grip strength and rotarod assessments were performed masked, 4 hours after dosing using published protocols ([66], [67]). Grip strength was performed with a Columbus Instruments Rodent Force Meter. Forepaw strength represented the average of 5 trials with 30-second rest periods, normalized by BW. Rotarod endurance was performed with a Columbus Instruments RotaMax. Mice were placed on the device drum at 1 rpm, which accelerated 1 rpm every 3 seconds to 12 rpm and a maximal time of 500 seconds. This was repeated 3 times with a 3-minute rest and total time reported. Voluntary wheel running performance was assessed with a customized system. Timestamped RPMs were measured 24 hours per day by infrared sensors, and a custom software calculated distance. Whole-body EBD was visualized after intravenous administration ([35]). EBD in PBS at 10 mg/mL was sterile filtered, and 50 μL/10 g BW was injected via tail vein. After 24 hours, animals were sacrificed, skin was removed and fixed in 4% formalin for 24 hours, and photographed using a Leica/Lumix camera.

MET = biological target: T3, MET (Homo sapiens, UniProt P08581); assay: KINOMEscan scanEDGE; type: binding; settings: 20 uM
T3 construct: purchased Eurofins DiscoverX (KINOMEscan; SAFETYscan E/IC50 ELECT)

CDK2 = biological target: T4, CDK2 (Homo sapiens, UniProt P24941); assay: KINOMEscan scanEDGE; type: binding; settings: 20 uM
T4 construct: purchased Eurofins DiscoverX (KINOMEscan; SAFETYscan E/IC50 ELECT)

GR = biological target: T5, GR (Homo sapiens, UniProt P04150); assay: SAFETYscan NHR Protein Interaction; type: cell-based; design: dose or concentration left out as unconfirmed
T5 construct: purchased Eurofins DiscoverX (KINOMEscan; SAFETYscan E/IC50 ELECT)
Protocol: (§2) The specificity of EDG-5506 for fast skeletal myosin over other, unrelated proteins was confirmed using two off-target binding and activity screens. […] A second off-target panel (SAFETYscan E/IC50 ELECT, Eurofins DiscoverX) tested in vitro enzyme activity against 78 proteins, including GPCR, ion channel, kinases, nuclear hormone receptors, and transporters. In all assays, the IC50 of EDG-5506 was more than 10 μM (Supplemental Data File 1).

[1] = biological target: 78 proteins, including GPCR, ion channel, kinases, nuclear hormone receptors, and transporters; assay: SAFETYscan E/IC50 ELECT off-target panel (whole panel); settings: read-out: IC50 in all SAFETYscan assays
Protocol: as §2

CHEK1 = biological target: T6, CHEK1 (Homo sapiens, UniProt O14757); assay: KINOMEscan scanEDGE; type: binding; settings: 20 uM
T6 construct: purchased Eurofins DiscoverX (KINOMEscan; SAFETYscan E/IC50 ELECT)

AKT2 = biological target: T7, AKT2 (Homo sapiens, UniProt P31751); assay: KINOMEscan scanEDGE; type: binding; settings: 20 uM
T7 construct: purchased Eurofins DiscoverX (KINOMEscan; SAFETYscan E/IC50 ELECT)

[2] = biological target: T8, TYK2(JH1domain-catalytic) (Homo sapiens, UniProt P29597); assay: KINOMEscan scanEDGE; type: binding; settings: 20 uM
T8 construct: TYK2(JH1domain-catalytic); purchased Eurofins DiscoverX (KINOMEscan; SAFETYscan E/IC50 ELECT)
Protocol: as §2

EPHA2 = biological target: T9, EPHA2 (Homo sapiens, UniProt P29317); assay: KINOMEscan scanEDGE; type: binding; settings: 20 uM
T9 construct: purchased Eurofins DiscoverX (KINOMEscan; SAFETYscan E/IC50 ELECT)
Protocol: as §2

FGFR2 = biological target: T10, FGFR2 (Homo sapiens, UniProt P21802); assay: KINOMEscan scanEDGE; type: binding; settings: 20 uM
T10 construct: purchased Eurofins DiscoverX (KINOMEscan; SAFETYscan E/IC50 ELECT)
Protocol: as §2

MKNK1 = biological target: T11, MKNK1 (Homo sapiens, UniProt Q9BUB5); assay: KINOMEscan scanEDGE; type: binding; settings: 20 uM
T11 construct: purchased Eurofins DiscoverX (KINOMEscan; SAFETYscan E/IC50 ELECT)
Protocol: as §2

AKT1 = biological target: T12, AKT1 (Homo sapiens, UniProt P31749); assay: KINOMEscan scanEDGE; type: binding; settings: 20 uM
T12 construct: purchased Eurofins DiscoverX (KINOMEscan; SAFETYscan E/IC50 ELECT)
Protocol: as §2

PCTK1 = biological target: T13, PCTK1 (Homo sapiens, UniProt Q00536); assay: KINOMEscan scanEDGE; type: binding; settings: 20 uM
T13 construct: purchased Eurofins DiscoverX (KINOMEscan; SAFETYscan E/IC50 ELECT)
Protocol: as §2

KIT = biological target: T14, KIT (Homo sapiens, UniProt P10721); assay: KINOMEscan scanEDGE; type: binding; settings: 20 uM
T14 construct: purchased Eurofins DiscoverX (KINOMEscan; SAFETYscan E/IC50 ELECT)
Protocol: as §2

JNK2 = biological target: T15, JNK2 (Homo sapiens, UniProt P45984); assay: KINOMEscan scanEDGE; type: binding; settings: 20 uM
T15 construct: purchased Eurofins DiscoverX (KINOMEscan; SAFETYscan E/IC50 ELECT)
Protocol: as §2

MLK1 = biological target: T16, MLK1 (Homo sapiens, UniProt P80192); assay: KINOMEscan scanEDGE; type: binding; settings: 20 uM
T16 construct: purchased Eurofins DiscoverX (KINOMEscan; SAFETYscan E/IC50 ELECT)
Protocol: as §2

PIM3 = biological target: T17, PIM3 (Homo sapiens, UniProt Q86V86); assay: KINOMEscan scanEDGE; type: binding; settings: 20 uM
T17 construct: purchased Eurofins DiscoverX (KINOMEscan; SAFETYscan E/IC50 ELECT)
Protocol: as §2

PIK3C2B = biological target: T18, PIK3C2B (Homo sapiens, UniProt O00750); assay: KINOMEscan scanEDGE; type: binding; settings: 20 uM
T18 construct: purchased Eurofins DiscoverX (KINOMEscan; SAFETYscan E/IC50 ELECT)
Protocol: as §2

KIT(V559D,T670I) = biological target: T19, KIT(V559D,T670I) (Homo sapiens, UniProt P10721, T670I/V559D); assay: KINOMEscan scanEDGE; type: binding; settings: 20 uM
T19 construct: purchased Eurofins DiscoverX (KINOMEscan; SAFETYscan E/IC50 ELECT)
Protocol: as §2

PIM1 = biological target: T20, PIM1 (Homo sapiens, UniProt P11309); assay: KINOMEscan scanEDGE; type: binding; settings: 20 uM
T20 construct: purchased Eurofins DiscoverX (KINOMEscan; SAFETYscan E/IC50 ELECT)
Protocol: as §2

CSNK1G2 = biological target: T21, CSNK1G2 (Homo sapiens, UniProt P78368); assay: KINOMEscan scanEDGE; type: binding; settings: 20 uM
T21 construct: purchased Eurofins DiscoverX (KINOMEscan; SAFETYscan E/IC50 ELECT)
Protocol: as §2

DCAMKL1 = biological target: T22, DCAMKL1 (Homo sapiens, UniProt O15075); assay: KINOMEscan scanEDGE; type: binding; settings: 20 uM
T22 construct: purchased Eurofins DiscoverX (KINOMEscan; SAFETYscan E/IC50 ELECT)
Protocol: as §2

BTK = biological target: T23, BTK (Homo sapiens, UniProt Q06187); assay: KINOMEscan scanEDGE; type: binding; settings: 20 uM
T23 construct: purchased Eurofins DiscoverX (KINOMEscan; SAFETYscan E/IC50 ELECT)
Protocol: as §2

mdx mice = assay: Evans blue dye muscle uptake; type: in vivo, mouse; settings: three-week treatment, nonexercised
Protocol: as §1

SRC = biological target: T24, SRC (Homo sapiens, UniProt P12931); assay: KINOMEscan scanEDGE; type: binding; settings: 20 uM
T24 construct: purchased Eurofins DiscoverX (KINOMEscan; SAFETYscan E/IC50 ELECT)

JNK3 = biological target: T25, JNK3 (Homo sapiens, UniProt P53779); assay: KINOMEscan scanEDGE; type: binding; settings: 20 uM
T25 construct: purchased Eurofins DiscoverX (KINOMEscan; SAFETYscan E/IC50 ELECT)

mdx EDL muscle = assay: Procion orange dye uptake after eccentric contraction; design: species or system mouse
Protocol: For procion imaging, injury protocols were performed in 1% procion MX Dye (020 Brilliant Orange, Jacquard Products) and fixed in cold 4% paraformaldehyde and then cold 30% sucrose/PBS before cryosection. Laminin immunohistochemistry used rabbit polyclonal (L9393, Sigma-Aldrich, 1:20) and chicken anti-rabbit Alexa Fluor 488 (Invitrogen, 1:500). Slides were scanned at ×20 with Nikon Te-2000 dark-field microscopy and analyzed with Imaris software (Bitplane AG). Imaris’ surface component algorithm was used to detect procion-labeled fiber boundaries. Nonspecific procion staining of the peripheral tendon and outer layer of cells (where handling could cause injury) was excluded by applying a size and location filter (>2× average fiber size and located adjacent to laminin-positive fibers at the edge of the muscle). Each fiber was identified with an ID and color coded before calculation.

T5 sequence (P04150 whole entry): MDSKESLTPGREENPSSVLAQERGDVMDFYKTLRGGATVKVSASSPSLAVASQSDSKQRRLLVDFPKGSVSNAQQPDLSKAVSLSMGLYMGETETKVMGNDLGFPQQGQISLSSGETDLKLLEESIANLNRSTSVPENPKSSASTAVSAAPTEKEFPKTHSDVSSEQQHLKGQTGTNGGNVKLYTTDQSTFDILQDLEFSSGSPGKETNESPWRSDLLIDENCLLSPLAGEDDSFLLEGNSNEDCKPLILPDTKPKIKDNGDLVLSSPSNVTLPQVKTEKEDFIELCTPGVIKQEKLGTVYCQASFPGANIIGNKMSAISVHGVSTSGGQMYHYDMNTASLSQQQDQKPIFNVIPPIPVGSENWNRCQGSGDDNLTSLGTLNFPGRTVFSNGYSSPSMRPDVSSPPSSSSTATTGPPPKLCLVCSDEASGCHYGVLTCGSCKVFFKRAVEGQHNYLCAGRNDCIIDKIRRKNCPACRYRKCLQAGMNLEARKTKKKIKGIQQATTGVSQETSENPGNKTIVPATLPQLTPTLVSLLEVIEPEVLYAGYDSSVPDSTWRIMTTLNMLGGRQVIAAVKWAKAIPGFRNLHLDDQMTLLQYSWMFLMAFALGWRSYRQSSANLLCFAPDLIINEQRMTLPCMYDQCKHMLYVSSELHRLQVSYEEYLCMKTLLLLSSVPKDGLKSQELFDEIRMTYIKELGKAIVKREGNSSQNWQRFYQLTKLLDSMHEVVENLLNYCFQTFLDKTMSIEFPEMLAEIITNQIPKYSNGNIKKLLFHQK
T13 sequence (Q00536 whole entry): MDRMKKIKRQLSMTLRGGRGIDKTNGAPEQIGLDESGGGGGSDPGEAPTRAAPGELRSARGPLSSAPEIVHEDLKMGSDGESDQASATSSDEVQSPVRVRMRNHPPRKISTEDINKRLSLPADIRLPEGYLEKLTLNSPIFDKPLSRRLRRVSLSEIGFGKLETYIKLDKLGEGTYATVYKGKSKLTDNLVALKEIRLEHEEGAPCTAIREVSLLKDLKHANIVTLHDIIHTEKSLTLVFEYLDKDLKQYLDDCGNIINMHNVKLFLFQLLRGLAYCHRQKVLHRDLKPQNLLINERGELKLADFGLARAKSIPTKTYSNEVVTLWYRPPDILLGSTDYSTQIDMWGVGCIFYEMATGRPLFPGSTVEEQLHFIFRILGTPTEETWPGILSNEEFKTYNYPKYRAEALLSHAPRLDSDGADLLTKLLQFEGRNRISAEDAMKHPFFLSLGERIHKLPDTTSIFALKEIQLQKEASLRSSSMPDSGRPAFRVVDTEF
T20 sequence (P11309 whole entry): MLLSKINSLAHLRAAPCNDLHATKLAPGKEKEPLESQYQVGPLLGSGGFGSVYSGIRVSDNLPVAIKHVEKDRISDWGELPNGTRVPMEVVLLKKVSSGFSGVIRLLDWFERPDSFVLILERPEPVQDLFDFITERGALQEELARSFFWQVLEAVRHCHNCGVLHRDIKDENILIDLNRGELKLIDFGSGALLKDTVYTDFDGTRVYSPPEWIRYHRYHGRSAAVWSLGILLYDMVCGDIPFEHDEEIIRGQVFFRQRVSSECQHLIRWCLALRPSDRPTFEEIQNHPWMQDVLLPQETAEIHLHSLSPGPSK
T21 sequence (P78368 whole entry): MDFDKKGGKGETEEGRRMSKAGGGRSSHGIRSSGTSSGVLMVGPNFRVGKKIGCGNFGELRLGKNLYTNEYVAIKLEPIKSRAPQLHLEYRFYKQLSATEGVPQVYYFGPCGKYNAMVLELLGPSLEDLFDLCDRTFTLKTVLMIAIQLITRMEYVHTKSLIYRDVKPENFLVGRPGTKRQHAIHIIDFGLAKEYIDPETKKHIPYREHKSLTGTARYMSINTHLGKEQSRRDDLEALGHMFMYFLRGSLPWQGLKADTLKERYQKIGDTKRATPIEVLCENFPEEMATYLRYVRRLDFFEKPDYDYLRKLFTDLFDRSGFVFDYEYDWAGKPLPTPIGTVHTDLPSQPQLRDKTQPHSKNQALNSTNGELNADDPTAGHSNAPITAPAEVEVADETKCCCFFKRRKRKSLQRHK
T25 sequence (P53779 whole entry): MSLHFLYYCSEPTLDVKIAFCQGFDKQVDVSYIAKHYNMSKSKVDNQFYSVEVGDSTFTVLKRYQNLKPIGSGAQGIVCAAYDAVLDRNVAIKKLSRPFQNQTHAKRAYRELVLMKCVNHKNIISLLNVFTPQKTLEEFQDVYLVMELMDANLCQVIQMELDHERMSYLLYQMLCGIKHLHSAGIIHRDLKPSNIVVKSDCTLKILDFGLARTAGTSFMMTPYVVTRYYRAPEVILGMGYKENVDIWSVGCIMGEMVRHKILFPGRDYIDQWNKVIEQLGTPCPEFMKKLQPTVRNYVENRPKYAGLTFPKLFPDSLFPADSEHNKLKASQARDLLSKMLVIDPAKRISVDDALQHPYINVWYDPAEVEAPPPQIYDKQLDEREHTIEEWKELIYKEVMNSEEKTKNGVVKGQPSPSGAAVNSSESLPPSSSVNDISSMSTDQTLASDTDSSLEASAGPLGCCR
T14 sequence (P10721 26-976): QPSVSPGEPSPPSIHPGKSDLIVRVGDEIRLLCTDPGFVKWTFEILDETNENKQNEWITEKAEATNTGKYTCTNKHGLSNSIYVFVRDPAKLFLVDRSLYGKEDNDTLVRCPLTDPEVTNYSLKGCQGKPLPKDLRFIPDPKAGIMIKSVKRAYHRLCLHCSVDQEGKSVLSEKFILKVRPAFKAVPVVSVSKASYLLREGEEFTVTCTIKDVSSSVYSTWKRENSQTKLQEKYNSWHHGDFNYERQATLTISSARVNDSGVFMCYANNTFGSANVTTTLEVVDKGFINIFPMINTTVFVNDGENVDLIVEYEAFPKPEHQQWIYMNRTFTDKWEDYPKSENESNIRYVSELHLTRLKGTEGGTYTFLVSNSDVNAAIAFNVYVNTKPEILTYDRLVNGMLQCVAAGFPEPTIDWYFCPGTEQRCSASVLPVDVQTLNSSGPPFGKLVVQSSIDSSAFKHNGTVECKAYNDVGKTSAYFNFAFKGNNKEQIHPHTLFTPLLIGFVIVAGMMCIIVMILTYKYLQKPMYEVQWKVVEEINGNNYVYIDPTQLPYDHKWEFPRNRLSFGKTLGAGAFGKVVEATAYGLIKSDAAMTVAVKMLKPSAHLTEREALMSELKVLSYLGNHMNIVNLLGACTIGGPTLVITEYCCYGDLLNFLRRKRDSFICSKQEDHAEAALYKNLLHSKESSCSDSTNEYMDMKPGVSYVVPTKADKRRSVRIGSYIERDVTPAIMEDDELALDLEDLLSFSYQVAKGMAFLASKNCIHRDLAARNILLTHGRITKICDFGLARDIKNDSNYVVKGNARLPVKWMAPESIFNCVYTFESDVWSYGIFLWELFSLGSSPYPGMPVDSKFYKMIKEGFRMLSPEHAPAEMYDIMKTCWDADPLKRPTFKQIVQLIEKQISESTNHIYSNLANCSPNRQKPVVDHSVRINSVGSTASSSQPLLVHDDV
T23 sequence (Q06187 whole entry): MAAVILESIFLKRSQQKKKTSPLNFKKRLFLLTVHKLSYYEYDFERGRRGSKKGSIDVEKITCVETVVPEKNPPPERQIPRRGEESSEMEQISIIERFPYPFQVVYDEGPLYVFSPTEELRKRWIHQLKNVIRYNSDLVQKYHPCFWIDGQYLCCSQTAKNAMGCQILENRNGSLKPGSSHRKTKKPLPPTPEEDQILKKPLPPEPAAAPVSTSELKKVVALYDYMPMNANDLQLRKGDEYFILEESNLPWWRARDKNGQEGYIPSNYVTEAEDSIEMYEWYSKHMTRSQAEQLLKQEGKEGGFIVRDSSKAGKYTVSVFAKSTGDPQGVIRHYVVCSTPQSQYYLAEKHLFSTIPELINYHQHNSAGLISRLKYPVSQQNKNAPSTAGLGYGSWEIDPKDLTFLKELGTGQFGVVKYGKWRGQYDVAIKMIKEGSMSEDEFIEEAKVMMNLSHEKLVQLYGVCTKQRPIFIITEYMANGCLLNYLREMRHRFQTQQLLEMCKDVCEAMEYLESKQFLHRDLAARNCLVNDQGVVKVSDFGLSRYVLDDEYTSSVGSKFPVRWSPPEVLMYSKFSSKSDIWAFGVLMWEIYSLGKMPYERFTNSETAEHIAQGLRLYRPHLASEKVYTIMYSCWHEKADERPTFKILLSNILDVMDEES
T11 sequence (Q9BUB5 whole entry): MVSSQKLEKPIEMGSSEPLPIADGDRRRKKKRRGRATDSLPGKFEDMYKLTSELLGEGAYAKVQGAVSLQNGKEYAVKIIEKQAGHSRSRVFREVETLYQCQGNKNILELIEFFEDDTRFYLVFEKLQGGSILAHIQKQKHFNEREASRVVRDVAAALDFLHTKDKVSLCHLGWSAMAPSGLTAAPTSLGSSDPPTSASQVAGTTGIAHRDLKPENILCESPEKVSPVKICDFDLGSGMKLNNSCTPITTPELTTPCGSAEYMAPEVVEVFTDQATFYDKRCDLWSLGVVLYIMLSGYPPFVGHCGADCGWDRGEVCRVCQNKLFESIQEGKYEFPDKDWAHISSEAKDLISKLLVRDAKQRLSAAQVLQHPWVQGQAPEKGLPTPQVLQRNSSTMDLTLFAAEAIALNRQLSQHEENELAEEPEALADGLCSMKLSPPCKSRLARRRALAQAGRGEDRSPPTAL
T12 sequence (P31749 whole entry): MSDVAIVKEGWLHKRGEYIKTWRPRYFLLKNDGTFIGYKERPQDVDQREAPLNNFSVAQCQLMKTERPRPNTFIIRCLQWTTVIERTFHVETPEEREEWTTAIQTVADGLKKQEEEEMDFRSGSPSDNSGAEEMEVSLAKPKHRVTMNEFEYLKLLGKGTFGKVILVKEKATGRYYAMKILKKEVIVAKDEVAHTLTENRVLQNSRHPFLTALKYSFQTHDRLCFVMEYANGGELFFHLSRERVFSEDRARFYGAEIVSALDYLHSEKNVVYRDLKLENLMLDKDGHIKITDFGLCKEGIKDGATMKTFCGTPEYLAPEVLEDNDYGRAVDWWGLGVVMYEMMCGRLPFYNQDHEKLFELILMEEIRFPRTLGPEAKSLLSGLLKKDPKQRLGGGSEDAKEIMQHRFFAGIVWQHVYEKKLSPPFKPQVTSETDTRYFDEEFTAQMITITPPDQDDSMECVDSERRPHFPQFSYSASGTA

O=c1ccc(-c2cnc(OCC(F)(F)F)nc2)nn1Cc1cncc(F)c1 [EDG-5506]
binding, % of control (MEK2): 72 % of control
binding, % of control (ADCK3): 93 % of control
wheel running (WT and mdx mice): no effect
binding, % of control (MET): 55 % of control
binding, % of control (CDK2): 100 % of control
Emax (GR; read-out: Max Response (%) (Agonist)): 0.41%
Max inhibition (antagonist mode) (GR; read-out: Max Response (%) (Antagonist)): 33.6%
IC50 [1]: > 10 µM
binding, % of control (CHEK1): 100 % of control
binding, % of control (AKT2): 93 % of control
binding, % of control [2]: 87 % of control
binding, % of control (EPHA2): 58 % of control
binding, % of control (FGFR2): 84 % of control
binding, % of control (MKNK1): 85 % of control
binding, % of control (AKT1): 100 % of control
binding, % of control (PCTK1): 100 % of control
binding, % of control (KIT): 98 % of control
binding, % of control (JNK2): 96 % of control
binding, % of control (MLK1): 98 % of control
binding, % of control (PIM3): 99 % of control
binding, % of control (PIK3C2B): 100 % of control
binding, % of control (KIT(V559D,T670I)): 100 % of control
binding, % of control (PIM1): 97 % of control
binding, % of control (CSNK1G2): 96 % of control
binding, % of control (DCAMKL1): 76 % of control
binding, % of control (BTK): 93 % of control
Evans blue dye-positive fibers (mdx mice): reduced blue fibers close to the level seen in WT mice
binding, % of control (SRC): 100 % of control
binding, % of control (JNK3): 81 % of control
membrane-impermeable dye (procion orange) uptake (mdx EDL muscle): effectively reduced dye uptake
